In PMC10671074, “Tumor Regression upon Intratumoral and Subcutaneous Dosing of the STING Agonist ALG-031048 in Mouse Efficacy Models” (International Journal of Molecular Sciences, 2023):
pEC50: −log10 of the molar value.

Tests used:
[1] = tested on: THP-1 cells (STING isoform HAQ); assay: THP-1 cytokine (IP-10) release assay; assay type: cell-based, human; settings: overnight incubation, THP-1 (STING HAQ)
Method: THP-1 cells (American Type Culture Collection, Manassas, VA, USA) were maintained in maintenance media consisting of RPMI-1640, 1% Pen-Strep, 1% NEAA, 1% Glutagro™, 1% HEPES (all Corning), and 10% FBS (Sigma-Aldrich). On the day of dosing, cells were pelleted and resuspended in fresh media to a density of 1.6 × 10^6 cells/mL. An aliquot of […] was added to each well of a 96-well U-bottom plate for a total of 1.0 × 10^5 cells per well, and the final volume was adjusted to 150 µL using fresh media. Compound dilutions were prepared in maintenance media, and 50 µL of diluted compound were added to wells in duplicate. Cells were incubated with the compound overnight at 37 °C. The next day, plates were centrifuged, and the supernatant was collected in a 96-well flat-bottom plate. Human IP-10 was detected using the ProQuantum Immunoassay kit (Thermo Fisher Scientific, Waltham, MA, USA). Data were analyzed using a standard curve and reported as fold-increase over background. Graphs were generated using GraphPad™ Prism version 8.0.

HEK 293 reporter cells = assay: Cell viability of HEK 293 reporter cells (CellTiter-Glo); settings: concentrations up to 1000 nM
Method: Assays were set up after allowing cells to adhere for 48 h. Compounds dissolved in water were serially diluted in dosing buffer containing 10 µg/mL of digitonin (MP Biomedicals, Solon, OH, USA). Media were aspirated from the cells, and 50 µL of buffer with compound was added in triplicate. […] The next day, 20 µL of media was transferred to two new plates, and either 50 µL of QuantiLuc™ (Invivogen) to measure IFN-β expression or 80 µL of QuantiBlue™ (Invivogen) to measure IRF activity were added. […] An aliquot of 100 µL of CellTiter-Glo® (Promega, Madison, WI, USA) was added to the original plate still containing the cells, and luminescence was determined to measure viability. All readouts were measured on an Envision plate reader from Perkin Elmer. Data were analyzed using GraphPad™ Prism’s version 8.0 [Agonist] vs. response—variable slope (four parameters) model.
with increasing concentrations of the STING agonists or IFN‐β. After 24 hours, IRF reporter activity

CT26 tumors = assay: Re-challenge with CT26 of mice with complete tumor regression; assay type: in vivo, mouse
Method: Ten naïve, age-matched female BALB/c mice were used as controls. […] Tumor growth was measured as described above.

MC38-hPD-L1 tumors = assay: MC38-hPD-L1 mouse colon carcinoma model; assay type: in vivo; settings: 0.5 mg/kg SC, QW (2×)
Excerpt: Female C57/BL6 mice (Shanghai Lingchang Biotechnology Co., Ltd., Shanghai, China) were 5 to 8 weeks old with a body weight > 16 g at the time of inoculation. Animals were housed and fed as described above.
After inoculation with tumor cells, the animals were checked daily for morbidity and mortality. During routine monitoring, the animals were checked for any effects of tumor growth or test articles on behavior such as mobility, food and water consumption, body weight gain/loss (body weights were measured twice per week after randomization), eye/hair matting, and any other abnormalities. Tumor volumes were measured and calculated as described above.
Each group consisted of 10 animals. The control group was administered 5 mg/kg isotype control antibody in a volume of 10 μL/g of IP, BIW for 2.5 weeks, 5 doses total. The atezolizumab-treated group was administered 5 mg/kg in a volume of 10 μL/g of IP, BIW for 2.5 weeks, 5 doses total. […] Dosing started when average tumor volumes were 70 mm^3.

[2] = Liver microsomal stability, human; assay type: in vitro ADME; settings: pH 7.4, 0.5 mg/mL human liver microsomes, 37 °C, read-out: Liver Microsome t½, Human
Method: The liver microsomal stability assay was carried out in 96-well microtiter plates. The test compounds at 5 µM and the reference compound (verapamil) at 1 µM final concentration were incubated separately at 37 °C with 0.5 mg/mL liver microsomes, with or without 1 mM NADPH in 100 mM potassium phosphate buffer, pH 7.4 with 3.3 mM MgCl2. […] At each of the time points (0, 15, 30, and 60 min), the enzymatic reaction was terminated with the addition of 150 μL of quenching solution (100% acetonitrile, 0.1% formic acid, and the internal standard), and subsequently the mixtures were vortexed vigorously for 20 min and centrifuged at 4000 rpm at 10 °C. The supernatants (80 µL) were transferred to a clean 96-well plate and analyzed via LC/MS/MS. The peak area ratios of each test compound over the internal standard were plotted against incubation time, and the t½ was calculated from the curve assuming first-order kinetics.

STING R232 = STING R232 (Homo sapiens, UniProt Q86WV6, H232R); assay: HEK 293 STING R232 IRF reporter assay; assay type: cell-based; parameters: host or cells: 293T-Dual hSTING-R232 (HEK 293T derived); settings: HEK 293 STING R232 cells, digitonin dosing buffer 30 min, 20 h; mean±standard deviation; read-out: Reporter Cell Assay EC50, STING R232 IRF
Method: Assays were set up after allowing cells to adhere for 48 h. Compounds dissolved in water were serially diluted in dosing buffer containing 10 µg/mL of digitonin (MP Biomedicals, Solon, OH, USA). Media were aspirated from the cells, and 50 µL of buffer with compound was added in triplicate. […] An aliquot of 100 µL of CellTiter-Glo® (Promega, Madison, WI, USA) was added to the original plate still containing the cells, and luminescence was determined to measure viability. All readouts were measured on an Envision plate reader from Perkin Elmer. Data were analyzed using GraphPad™ Prism’s version 8.0 [Agonist] vs. response—variable slope (four parameters) model.

Sequence of STING R232 (Q86WV6 whole entry H232R): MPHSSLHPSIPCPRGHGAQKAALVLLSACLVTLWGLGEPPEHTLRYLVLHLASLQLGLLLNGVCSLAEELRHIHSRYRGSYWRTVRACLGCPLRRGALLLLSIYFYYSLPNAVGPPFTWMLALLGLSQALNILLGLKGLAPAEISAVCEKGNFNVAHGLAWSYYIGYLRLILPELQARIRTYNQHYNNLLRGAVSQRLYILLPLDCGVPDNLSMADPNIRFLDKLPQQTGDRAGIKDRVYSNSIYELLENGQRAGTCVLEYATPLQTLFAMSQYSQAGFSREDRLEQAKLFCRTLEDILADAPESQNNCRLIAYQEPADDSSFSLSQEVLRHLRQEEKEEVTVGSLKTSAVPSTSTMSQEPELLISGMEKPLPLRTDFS

## CO[C@H]1[C@H]2OP(=O)(O)OC[C@@]34C[C@@H]3[C@@H](n3cnc5c(N)ncnc53)[C@H](O)[C@@H]4O[P@](=O)(S)OC[C@H]1O[C@H]2n1cnc2c(=O)[nH]c(N)nc21 [ALG-031048]
[1]
  Release of IP-10 in THP-1 cells: dose-dependent release of IP-10
HEK 293 reporter cells
  Cell viability of HEK 293 reporter cells: did not cause any loss of cell viability
CT26 tumors; Figure 5C, previously 100 μg IT × 3, CT26 left flank, 25 days, no further treatment
  Animals with complete tumor suppression (TV < 10 mm^3) after CT26 re-challenge: six
CT26 tumors; Figure 5C, three animals
  TV at last measurement of animals with delayed tumor growth after CT26 re-challenge: 40–221 mm^3
CT26 tumors; complete responders to 100 μg IT 3 × q3d, CT26 re-challenge
  TV at end of study of remaining re-challenged animal: 864 mm^3
CT26 tumors; complete responders to 100 μg IT 3 × q3d, re-challenged on opposite flank, 40 days without additional treatment
  Animals with tumor growth suppressed after CT26 re-challenge: 8 of 9
MC38-hPD-L1 tumors; Day 11
  Tumor Reduction vs. Group 1 (vehicle): 40.3%
MC38-hPD-L1 tumors; n = 10, vehicle 2268
  TV on Day 11 (Median): 1353 mm^3
[2]
  half-life at 5 µM: > 8 h
STING R232
  pEC50: 7.54
